Reference: patent publication US12440542B1, “Kits for preparing and delivering purified corticotropin” (ANI Pharmaceuticals, Inc., priority 2022, dated 2025)

These compounds were tested on THP-1 Blue, Raw Blue, HEK-blue hTLR3, HEK-Blue hTLR4, HEK-Blue hNOD2 (assay: Activation of innate immune response in reporter cell lines covering TLR and NOD2 expression). Details: 5 cell lines; 3 PPQ lots; highest drug substance concentration tested 10 μg/mL.
Assay type: cell-based
Description: Method development, qualification, and testing for activation of innate immune response was performed. The innate immune assays performed compared 3 PPQ lots. The work was conducted using 5 cell lines to cover TLR and NOD2 expression (THP-1 Blue, Raw Blue, HEK-blue hTLR3, HEK-Blue hTLR4, HEK-Blue hNOD2). […] The highest drug substance concentration tested was 10 μg/mL. A dose of the sterile preparation of purified corticotropin at 80 U is, equivalent to approximately 1 mg of drug substance per total body weight of subject.

| Compound | dose response in innate immune assays |
| --- | --- |
| CCCc1nc2c(N)nc3ccccc3c2s1 [CL075] | robust dose responses |
| CC(=O)N[C@@H]1[C@@H](O[C@H](C)C(=O)N[C@@H](C)C(=O)N[C@H](CCC(=O)O)C(N)=O)[C@H](O)[C@@H](CO)O[C@H]1O [MDP] | robust dose responses |
| FSL-1 | robust dose responses |
